Assays:
[1] = test system: DSB repair pathways (NHEJ, MMEJ, HR) at the AAVS1 locus in U2OS cells; test: Cas9 assay (DSBR-Seq): NHEJ, MMEJ and HR quantified by sequencing repair events at a site-directed DSB; type: cell-based
Experimental: FIG. 4. A-G. E7 expression shifts DNA double strand break repair pathway choice towards MMEJ. (FIG. 4 A) Schematic of DSBR-Seq Assay. The sequencing reads are classified into NHEJ (<5 bp deletion) in (FIG. 4 B), MMEJ (>5 bp deletion with at least 2 bp MH) in (FIG. 4 C) and HR (substitutions from HR donor) in (FIG. 4 D). The DNApk inhibitor […] was used at 1 μM (micromolar) concentration. (FIG. 4 E) cNHEJ measured as a fraction of mutant reads with deletion sizes less than 5 bp. (FIG. 4 F) E7 expression favors mutant reads with deletion sizes larger than 5 bp representing DSBs repaired by MMEJ. (FIG. 4 G) E7 expression results in lower deletion frequency of small deletions near the double strand break. Results represent the mean of 3 independent experiments+/−the standard error of the mean. * represents a p-vale of <0.05.
To measure DSB repair pathway tradeoffs within an endogenous genomic locus, we used the Cas9 endonuclease to create a site-directed DSB at the AAVS1 locus, chosen because of its characterization as a “safe” genomic locus for integration. Cas9 creates a blunt-ended DSB and repair events at the breaksite can be cataloged in a pool of cells using PCR amplification of a region surrounding the breaksite and massively parallel sequencing to quantify repair outcomes. […] NHEJ is measured with sequencing events with small (1-5) base pair deletions whereas MMEJ is quantified using sequencing events with large deletions and microhomology at the breaksite. All three pathways are thereby quantifiable in a single set of sequencing data in a single pool of cells (FIG. 4 A). […]
To quantify NHEJ, MMEJ and HR at an endogenous breaksite, a Cas9 and gRNA expression plasmid and a donor template oligonucleotide was transfected into U2OS cells with and without E7 expressed. A PCR product surrounding the breaksite was sequenced using Illumina-based NGS technology and the pattern of deletions at the breaksite was analyzed and quantified according to methods described within the Example 2 (SI appendix). […]

[2] = molecular target: Rb (retinoblastoma protein, RB1) (human) (UniProt P06400); test: cell-based or functional assay
UniProt P06400, sequence (P06400 2-928 limits assumed): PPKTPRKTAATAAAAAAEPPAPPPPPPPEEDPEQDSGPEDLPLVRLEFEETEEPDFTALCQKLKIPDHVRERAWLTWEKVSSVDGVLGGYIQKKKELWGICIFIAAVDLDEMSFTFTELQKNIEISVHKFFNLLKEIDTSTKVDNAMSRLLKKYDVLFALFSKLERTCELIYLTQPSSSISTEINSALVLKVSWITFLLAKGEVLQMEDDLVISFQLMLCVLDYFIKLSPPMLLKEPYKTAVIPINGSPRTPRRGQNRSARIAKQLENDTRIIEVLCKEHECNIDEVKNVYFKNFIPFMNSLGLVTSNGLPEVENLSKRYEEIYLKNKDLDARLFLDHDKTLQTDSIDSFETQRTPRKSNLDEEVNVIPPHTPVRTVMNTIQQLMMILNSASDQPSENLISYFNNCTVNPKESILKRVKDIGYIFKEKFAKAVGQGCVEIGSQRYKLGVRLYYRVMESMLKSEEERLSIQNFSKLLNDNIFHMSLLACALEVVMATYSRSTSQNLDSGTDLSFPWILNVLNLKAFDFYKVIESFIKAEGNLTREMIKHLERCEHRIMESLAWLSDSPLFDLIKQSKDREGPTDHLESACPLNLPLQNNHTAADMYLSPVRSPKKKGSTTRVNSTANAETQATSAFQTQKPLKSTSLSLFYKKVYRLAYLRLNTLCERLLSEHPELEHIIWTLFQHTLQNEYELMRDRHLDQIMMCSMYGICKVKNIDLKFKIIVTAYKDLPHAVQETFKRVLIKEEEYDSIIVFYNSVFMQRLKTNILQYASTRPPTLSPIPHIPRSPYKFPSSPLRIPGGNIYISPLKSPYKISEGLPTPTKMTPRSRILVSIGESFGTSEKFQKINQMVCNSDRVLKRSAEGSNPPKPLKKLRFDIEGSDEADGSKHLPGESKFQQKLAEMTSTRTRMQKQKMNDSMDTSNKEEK

Molecule | small deletions (1-5 base pairs), reflective of NHEJ ([1]; inhibitor at 1 μM (FIG. 4 B)) | larger deletions (>5 bp) with microhomology (≥2 bp) (MMEJ) ([1]; inhibitor at 1 μM (FIG. 4 C)) | HR (substitutions from HR donor) ([1]; inhibitor at 1 μM (FIG. 4 D)) | MMEJ activity (percentage of GFP positive cells, U2OS EJ2-GFP reporter, against empty vector) [2] [%] | decrease in NHEJ activity (percentage of GFP positive cells, U2OS EJ5-GFP reporter, against empty vector) [2] [%]
O=c1cc(N2CCOCC2)oc2c(-c3cccc4c3sc3ccccc34)cccc12 [Nu7441] | decrease | increase | increase | – | –
HPV16 E7 oncoprotein (from UniProt P03129 1-98) | – | – | – | 42 | 31
